Among the test systems are BT-549 breast; SK-MEL-2 melanoma; UO-31 renal; MOLT-4 leukemia; TK-10 renal; MDA-MB-231 breast; M14 melanoma; EKVX NSCLC; OVCAR-3 ovarian; OVCAR-5 ovarian.
Common to all, as to test: NCI tumour cell line growth inhibition, 48 h

Molecules are shown by their SMILES.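 Interpolation was linear, between the two tested concentrations surrounding the appropriate level; five concentrations were tested over 48 hours in 96-well plates. GI50 = concentration required for 50% inhibition of growth. TGI is the concentration that stops growth completely.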 Some results are limits rather than exact numbers.

Consider `NC(=O)C(=Cn1c(=S)[nH]c2ccc([N+](=O)[O-])cc21)C(N)=O`, for which the TGI in the assay on BT-549 breast, with SK-MEL-2 melanoma, with UO-31 renal, in the assay on MOLT-4 leukemia, in the assay with TK-10 renal and in the assay with MDA-MB-231 breast was more than 100 µM each time. Moreover, the TGI in the assay with M14 melanoma, with EKVX NSCLC, with OVCAR-3 ovarian and in the assay with OVCAR-5 ovarian was more than 100 µM in each case.
As for `Cc1ccc(-n2c3nc(=O)[nH]c(=O)c-3cc3cc([N+](=O)[O-])ccc32)cc1`, the GI50 in the assay on BT-549 breast is 6.49 µM; with SK-MEL-2 melanoma, 44.2 µM; with UO-31 renal, 23 µM; in the assay with MOLT-4 leukemia it was 6.61 µM; in the assay with TK-10 renal, 29.3 µM; in the assay with MDA-MB-231 breast, 17.8 µM. In addition, the GI50 in the assay on M14 melanoma is 17.3 µM; in the assay with EKVX NSCLC it was 33.1 µM; in the assay with OVCAR-3 ovarian, 2.18 µM; with OVCAR-5 ovarian, 21.1 µM. Moreover, the TGI in the assay on BT-549 breast is 27.8 µM; in the assay with SK-MEL-2 melanoma, more than 100 µM; with UO-31 renal it was 68.2 µM; with MOLT-4 leukemia it was more than 100 µM; with TK-10 renal it was 64.5 µM; in the assay on MDA-MB-231 breast it was 44.2 µM. Also, the TGI in the assay with M14 melanoma turned out to be 36.6 µM; in the assay on EKVX NSCLC it was 67 µM; with OVCAR-3 ovarian it was 4.79 µM; with OVCAR-5 ovarian it was 50.2 µM.
Take `COc1cccc(-c2nc(-c3ccc(NC(=O)OC(C)C)cc3)[nH]c2-c2ccnc(Br)c2)c1`: the GI50 in the assay on BT-549 breast is 2.19 µM; in the assay with SK-MEL-2 melanoma it was 2.33 µM; in the assay with UO-31 renal, 2.51 µM; in the assay with MOLT-4 leukemia, 1.64 µM; in the assay with TK-10 renal, 3.61 µM; in the assay with MDA-MB-231 breast it was 3.85 µM. For the same compound, the GI50 with M14 melanoma was 3.06 µM; in the assay on EKVX NSCLC it was 2.45 µM; in the assay on OVCAR-3 ovarian, 2.83 µM; in the assay on OVCAR-5 ovarian, 4.43 µM. Also, the TGI was more than 100 µM in the assay on BT-549 breast; 7.03 µM with SK-MEL-2 melanoma; more than 100 µM in the assay on UO-31 renal; 56 µM in the assay with MOLT-4 leukemia; more than 100 µM in the assay with TK-10 renal; more than 100 µM with MDA-MB-231 breast. Moreover, the TGI in the assay on M14 melanoma is more than 100 µM; in the assay with EKVX NSCLC, 10.3 µM; with OVCAR-3 ovarian it was more than 100 µM; with OVCAR-5 ovarian, more than 100 µM.
As to `CC1SC(c2ccc(F)cc2)N(NC(=O)C(O)c2ccccc2)C1=O` (stereo not given), the GI50 with BT-549 breast, with SK-MEL-2 melanoma, with UO-31 renal, in the assay on MOLT-4 leukemia, in the assay with TK-10 renal and in the assay on MDA-MB-231 breast was more than 100 µM throughout. In addition, the GI50 in the assay on M14 melanoma, in the assay with EKVX NSCLC, with OVCAR-3 ovarian and in the assay on OVCAR-5 ovarian was more than 100 µM throughout. For the same compound, the TGI with BT-549 breast, in the assay with SK-MEL-2 melanoma, in the assay with UO-31 renal, in the assay on MOLT-4 leukemia, in the assay with TK-10 renal and with MDA-MB-231 breast was more than 100 µM each time. Further, the TGI in the assay on M14 melanoma, in the assay on EKVX NSCLC, in the assay with OVCAR-3 ovarian and in the assay on OVCAR-5 ovarian was more than 100 µM each time.
For `O=C1CCCCN1c1ccccc1C#C/C=C\C#Cc1ccccc1C(F)(F)F`, the GI50 in the assay with BT-549 breast is 2.59 µM; with SK-MEL-2 melanoma, 7.26 µM; with UO-31 renal, 2 µM; in the assay on MOLT-4 leukemia it was 1.59 µM; with TK-10 renal, 3.35 µM; in the assay with MDA-MB-231 breast it was 1.16 µM. Moreover, the GI50 in the assay on M14 melanoma is 0.909 µM; in the assay on EKVX NSCLC, 4.08 µM; with OVCAR-3 ovarian, 0.879 µM; in the assay on OVCAR-5 ovarian, 3.35 µM. The TGI with BT-549 breast is 14.5 µM; with SK-MEL-2 melanoma it was more than 50 µM; in the assay with UO-31 renal, 13.6 µM; with MOLT-4 leukemia it was 6.96 µM; in the assay on TK-10 renal it was 30.8 µM; in the assay on MDA-MB-231 breast, 2.71 µM. The TGI with M14 melanoma is 2.29 µM; in the assay on EKVX NSCLC, more than 50 µM; in the assay with OVCAR-3 ovarian, 2.4 µM; with OVCAR-5 ovarian, more than 50 µM.
As for `CN1CC[C@@H](NC(=O)Nc2ccc(C#N)cc2)C[C@@H]1c1nc2ccccc2[nH]1`, the GI50 in the assay with BT-549 breast was more than 100 µM; with SK-MEL-2 melanoma it was more than 100 µM; with UO-31 renal, more than 78.1 µM; in the assay with MOLT-4 leukemia it was 55.6 µM; in the assay on TK-10 renal, more than 100 µM; in the assay on MDA-MB-231 breast, more than 100 µM. The GI50 in the assay with M14 melanoma, in the assay with EKVX NSCLC, in the assay on OVCAR-3 ovarian and in the assay with OVCAR-5 ovarian was more than 100 µM throughout. The TGI with BT-549 breast, in the assay with SK-MEL-2 melanoma, with UO-31 renal, in the assay with MOLT-4 leukemia, in the assay with TK-10 renal and with MDA-MB-231 breast was more than 100 µM throughout. For the same compound, the TGI with M14 melanoma, with EKVX NSCLC, with OVCAR-3 ovarian and in the assay with OVCAR-5 ovarian was more than 100 µM in each case.

(Values after PubChem BioAssay (NCI).)
